Reference: patent US20130190314A1, “DERIVATIVES OF 6-CYCLOAMINO-2-THIENYL-3-(PYRIDIN-4-YL)IMIDAZO[1,2-b]-PYRIDAZINE AND 6-CYCLOAMINO-2-FURANYL-3-(PYRIDIN-4-YL)IMIDAZO[1,2-b]-PYRIDAZINE, PREPARATION AND THERAPEUTIC USE THEREOF” (priority 2008, published 2013)
pIC50: −log10 of the molar value.

Experiments:
[1] = target: T1, casein kinase 1 delta (human CK1 delta PV3665) (Homo sapiens, UniProt P48730); experiment: FRET fluorescence test (Z'Lyte kinase assay kit), phosphorylation of peptide substrate SER/THR 11; assay type: biochemical; settings: peptide substrate 2 μM, ATP at 4 times the KM
T1 construct: purchased Invitrogen Corporation PV3665
Description: The capacity of the compounds of the invention to inhibit the phosphorylation of casein by casein kinase 1 epsilon and casein kinase 1 delta can be evaluated using a FRET (Fluorescence Resonance Energy Transfer) fluorescence test by means of the “Z′Lyte™ kinase assay kit” (reference PV3670; Invitrogen Corporation™) according to the supplier's instructions.
The casein kinases 1 used are obtained from Invitrogen Corporation (human CK1 epsilon PV3500 and human CK1 delta PV3665).
A peptide substrate, labelled at both ends with a fluorophore donor group (coumarin) and a fluorophore acceptor group (fluorescein) constituting a FRET system is phosphorylated in the presence of ATP by casein kinase 1 epsilon or delta in the presence of increasing concentrations of compounds of the invention.
The mixture is treated with a site-specific protease that specifically cleaves the peptide substrate so as to form two fluorescent fragments having a large fluorescence emission ratio.
The fluorescence observed is thus related to the capacity of the products of the invention to inhibit the phosphorylation of the peptide substrate by casein kinase 1 epsilon or casein kinase 1 delta. […]
The emitted fluorescence is measured at wavelengths of 445 and 520 nm (excitation at 400 nm).

[2] = target: T2, casein kinase 1 epsilon (CK1 epsilon) (Homo sapiens, UniProt P49674); experiment: Filter-plate assay of ATP-33P: inhibition of phosphorylation of casein by CK1 epsilon; assay type: biochemical; settings: casein substrate, 10 μM ATP, 2 hours at ambient temperature
T2 construct: Invitrogen Corporation (alternative)
Description: The capacity of the compounds of the invention to inhibit the phosphorylation of casein by casein kinase 1 epsilon and delta can be evaluated according to the procedure described in document US 2005/0131012.
Filter-Plate Assay of ATP-^33P for the Screening of CK1 Epsilon Inhibitors:
The effect of the compounds on inhibition of the phosphorylation of casein by the enzyme casein kinase 1 epsilon (CK1 epsilon) is measured using a casein assay with filtration of ATP-^33P in vitro.
Casein kinase 1 epsilon (0.58 mg/ml) is obtained via fermentation and purification processes carried out according to methods well known to those skilled in the art, or may also be obtained from Invitrogen Corporation™ (human CK1 epsilon).
The compounds are tested at five different concentrations so as to generate IC50 values, i.e. the concentration at which a compound is capable of inhibiting the enzymatic activity by 50%, or alternatively the % inhibition at a concentration of 10 micromolar.
“U”-bottomed Falcon plates are prepared by placing 5 μl of solutions of the compounds according to the invention at concentrations of 10, 1, 0.1, 0.01 or 0.001 μM in various wells. The solutions of the compounds according to the invention at these various concentrations are prepared by diluting in a test buffer (50 mM Tris, pH 7.5, […], 2 mM DTT and 1 mM EGTA) a stock solution in DMSO at a concentration of 10 mM. Next, 5 μl of dephosphorylated casein are added to a final concentration of 0.2 μg/μl, 20 μl of CK1 epsilon are added to a final concentration of 3 ng/μl, and 20 μl of ATP-^33P are added to a final concentration of 0.02 μCi/μl mixed with cold ATP (10 μM final—approximately 2×10^6 CPM per well). The final total test volume per well is equal to 50 μl.
The “U”-bottomed Falcon® test plate mentioned above is vortexed, and then incubated at ambient temperature for 2 hours. After 2 hours, the reaction is stopped by adding an ice-cold solution of 65 μl of cold ATP (2 mM) prepared in test buffer. 100 μl of the reaction mixture are then transferred from the “U”-bottomed Falcon®plate into Millipore MAPH filter plates, preimpregnated with 25 μl of ice-cold 100% TCA. […]
The plates are left to dry overnight at ambient temperature. […] The radiation emitted by each well is then measured for 2 minutes in a Packard® Topcount NXT scintillation counter, in which the values of CPM/well are measured.
The % inhibition of the capacity of the enzyme to phosphorylate the substrate (casein) is determined for each concentration of compound tested. These inhibition data expressed as percentages are used to calculate the IC50 value for each compound compared with the controls.
The kinetic studies determined the KM value for ATP as being 21 μM in this test system.

T2 sequence (P49674 whole entry): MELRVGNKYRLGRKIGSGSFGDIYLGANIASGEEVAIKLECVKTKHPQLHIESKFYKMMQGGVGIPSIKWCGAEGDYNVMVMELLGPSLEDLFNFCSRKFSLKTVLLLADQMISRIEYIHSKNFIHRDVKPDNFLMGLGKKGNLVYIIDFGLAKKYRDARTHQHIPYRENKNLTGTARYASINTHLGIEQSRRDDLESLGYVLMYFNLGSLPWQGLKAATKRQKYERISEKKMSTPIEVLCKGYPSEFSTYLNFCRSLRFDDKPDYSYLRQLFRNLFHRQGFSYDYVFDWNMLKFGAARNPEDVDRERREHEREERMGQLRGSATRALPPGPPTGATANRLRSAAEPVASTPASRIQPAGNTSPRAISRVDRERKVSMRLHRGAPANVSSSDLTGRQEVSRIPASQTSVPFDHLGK
T1 sequence (P48730 whole entry): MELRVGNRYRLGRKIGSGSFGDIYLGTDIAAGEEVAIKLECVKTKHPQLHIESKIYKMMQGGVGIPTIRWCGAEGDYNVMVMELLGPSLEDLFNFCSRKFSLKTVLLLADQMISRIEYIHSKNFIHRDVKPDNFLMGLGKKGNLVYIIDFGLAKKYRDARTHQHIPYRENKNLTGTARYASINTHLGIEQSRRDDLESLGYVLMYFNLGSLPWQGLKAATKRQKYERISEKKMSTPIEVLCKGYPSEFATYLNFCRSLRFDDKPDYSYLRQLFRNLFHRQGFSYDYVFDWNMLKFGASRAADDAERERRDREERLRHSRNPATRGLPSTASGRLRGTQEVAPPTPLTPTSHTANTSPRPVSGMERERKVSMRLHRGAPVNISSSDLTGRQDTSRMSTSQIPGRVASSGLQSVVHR

pIC50 [1] | pIC50 [2] | Compound
7.12 to 7.20 | 7.06 | Cc1ccc(-c2nc3ccc(N4CCNCC4)nn3c2-c2ccncc2)s1 [Compound 10, 2-(5-methylthien-2-yl)-6-(piperazin-1-yl)-3-(pyridin-4-yl)imidazo[1,2-b]pyridazine]
6.79 to 7.03 | 7.72 | OCCN1CCN(c2ccc3nc(-c4ccc(Cl)s4)c(-c4ccncc4)n3n2)CC1 [Compound 14, 2-{4-[2-(5-chlorothien-2-yl)-3-(pyridin-4-yl)imidazo[1,2-b]pyridazin-6-yl](piperazin-1-yl)}ethanol]
